In PubChem BioAssay AID248 (DTP/NCI, 2004):
Inconclusive results and toxic doses are left out.

Tested on: L1210 leukemia ip in BDF1 mice, survival T/C
Assay: NCI In Vivo Anticancer Drug Screen. Data for tumor model L1210 Leukemia (intraperitoneal) in B6D2F1 (BDF1) mice
Details: endpoint: mean survival time, higher = longer survival
Summary of the method: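 Tumor cells were implanted, animals were treated, and survival was followed. The result divides the treated measurement by the vehicle-control measurement.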

[1] = dose: 100.0 mg/kg/injection, schedule: Q01DX001 (ip), vehicle: saline with Tween-80
[2] = dose: 200.0 mg/kg/injection, schedule: Q01DX001 (ip), vehicle: saline with Tween-80
[3] = dose: 50.0 mg/kg/injection, schedule: Q01DX001 (ip), vehicle: saline with Tween-80
[4] = dose: 100.0 mg/kg/injection, schedule: Q04DX003 (ip), vehicle: saline with Tween-80
[5] = dose: 50.0 mg/kg/injection, schedule: Q01DX009 (ip), vehicle: saline
[6] = dose: 100.0 mg/kg/injection, schedule: Q04DX003 (ip), vehicle: saline

Which T/C [1] does the source give for `COC(=O)C(Cc1[nH]cnc1N=Nc1ccc(Br)cc1)NC(C)=O` (configuration not stated) here?
The T/C was 107 % of control.

What about the T/C [2] of the same compound?
Its T/C is 96 % of control.

And the T/C (dose: 400.0 mg/kg/injection, schedule: Q01DX001 (ip), vehicle: saline with Tween-80)?
Its T/C is 96 % of control.

Which T/C (dose: 100.0 mg/kg/injection, schedule: Q04DX002 (ip), vehicle: Klucel (hydroxypropylcellulose) (HPC)) does the source give for `O=S=Nc1ccc([N+](=O)[O-])cc1Cl` here?
The T/C was 103 % of control.

And the T/C (dose: 200.0 mg/kg/injection, schedule: Q04DX002 (ip), vehicle: Klucel (hydroxypropylcellulose) (HPC))?
The T/C was 106 % of control.

And the T/C (dose: 400.0 mg/kg/injection, schedule: Q04DX002 (ip), vehicle: Klucel (hydroxypropylcellulose) (HPC))?
Its T/C is 100 % of control.

Which T/C (dose: 9.38 mg/kg/injection, schedule: Q01DX001 (ip), vehicle: other) does the source give for `C[n+]1ccccc1/C=C/c1cccc(O)c1` here?
The T/C was 103 % of control.

And the T/C (dose: 18.75 mg/kg/injection, schedule: Q01DX001 (ip), vehicle: other)?
Its T/C is 100 % of control.

Which results are given for `C[N+](C)(C)CSc1ccccc1-n1cccc1`?
T/C (dose: 12.5 mg/kg/injection, schedule: Q01DX009 (ip), vehicle: Klucel (hydroxypropylcellulose) (HPC)): 112 % of control; T/C (dose: 12.5 mg/kg/injection, schedule: Q04DX003 (ip), vehicle: Klucel (hydroxypropylcellulose) (HPC)): 103 % of control; T/C (dose: 25.0 mg/kg/injection, schedule: Q01DX009 (ip), vehicle: Klucel (hydroxypropylcellulose) (HPC)): 103 % of control; T/C (dose: 25.0 mg/kg/injection, schedule: Q04DX003 (ip), vehicle: Klucel (hydroxypropylcellulose) (HPC)): 92 % of control; T/C (dose: 50.0 mg/kg/injection, schedule: Q01DX009 (ip), vehicle: Klucel (hydroxypropylcellulose) (HPC)): 110 % of control; T/C (dose: 50.0 mg/kg/injection, schedule: Q04DX003 (ip), vehicle: Klucel (hydroxypropylcellulose) (HPC)): 97 % of control

`O=S(=O)(OCC1CO1)c1ccc(Cl)cc1` (configuration not stated) was tested. Which T/C (dose: 100.0 mg/kg/injection, schedule: Q01DX008 (ip), vehicle: Klucel (hydroxypropylcellulose) (HPC)) did it give?
Its T/C is 101 % of control.

What about the T/C (dose: 200.0 mg/kg/injection, schedule: Q01DX008 (ip), vehicle: Klucel (hydroxypropylcellulose) (HPC)) of the same compound?
The T/C was 108 % of control.

What about the T/C (dose: 400.0 mg/kg/injection, schedule: Q01DX008 (ip), vehicle: Klucel (hydroxypropylcellulose) (HPC)) of the same compound?
The T/C was 108 % of control.

Which results are given for `CCN(CC)Cc1cc(O)c(CN(CC)CC)cc1O`?
T/C (dose: 25.0 mg/kg/injection, schedule: Q01DX001 (ip), vehicle: saline with Tween-80): 93 % of control; T/C [3]: 103 % of control; T/C [1]: 96 % of control

`OC1CCCC23CCC12CC3` (configuration not stated) was tested. Which T/C [3] did it give?
Its T/C is 101 % of control.

And the T/C [1]?
Its T/C is 99 % of control.

And the T/C [2]?
The T/C was 96 % of control.

Which T/C (dose: 100.0 mg/kg/injection, schedule: Q01DX001 (ip), vehicle: saline) does the source give for `O=NN(CCCl)C(=O)Nc1ccc(NC(=O)N(CCCl)N=O)cc1` here?
Its T/C is 201 % of control.

What about the T/C (dose: 200.0 mg/kg/injection, schedule: Q01DX001 (ip), vehicle: saline) of the same compound?
Its T/C is 182 % of control.

What about the T/C (dose: 300.0 mg/kg/injection, schedule: Q01DX001 (ip), vehicle: saline) of the same compound?
Its T/C is 230 % of control.

And the T/C (dose: 400.0 mg/kg/injection, schedule: Q01DX001 (ip), vehicle: saline)?
The T/C was 264 % of control.

What about the T/C (dose: 500.0 mg/kg/injection, schedule: Q01DX001 (ip), vehicle: saline) of the same compound?
Its T/C is 285 % of control.

What about the T/C (dose: 600.0 mg/kg/injection, schedule: Q01DX001 (ip), vehicle: saline) of the same compound?
Its T/C is 300 % of control.

What about the T/C (dose: 800.0 mg/kg/injection, schedule: Q01DX001 (ip), vehicle: saline) of the same compound?
Its T/C is 291 % of control.

What about the T/C (dose: 1000.0 mg/kg/injection, schedule: Q01DX001 (ip), vehicle: saline) of the same compound?
The T/C was 268 % of control.

With `CC1=Nc2ccccc2/C1=C/c1c(O)[nH]c(=O)[nH]c1=O` as the compound, how does the T/C (dose: 37.5 mg/kg/injection, schedule: Q01DX Z (ip), vehicle: carboxymethylcellulose (CMC)) read?
Its T/C is 103 % of control.

What about the T/C (dose: 75.0 mg/kg/injection, schedule: Q01DX Z (ip), vehicle: carboxymethylcellulose (CMC)) of the same compound?
The T/C was 103 % of control.

What about the T/C (dose: 150.0 mg/kg/injection, schedule: Q01DX Z (ip), vehicle: carboxymethylcellulose (CMC)) of the same compound?
Its T/C is 100 % of control.

What about the T/C (dose: 300.0 mg/kg/injection, schedule: Q01DX Z (ip), vehicle: carboxymethylcellulose (CMC)) of the same compound?
The T/C was 103 % of control.

For `S=C([S][Sn]([S]C(=S)N(c1ccccc1)c1ccccc1)([c]1ccccc1)[c]1ccccc1)N(c1ccccc1)c1ccccc1`, which T/C (dose: 100.0 mg/kg/injection, schedule: Q01DX001 (ip), vehicle: steriod suspending solution) is on record?
The T/C was 93 % of control.

What about the T/C (dose: 200.0 mg/kg/injection, schedule: Q01DX001 (ip), vehicle: steriod suspending solution) of the same compound?
Its T/C is 112 % of control.

Which T/C (dose: 75.0 mg/kg/injection, schedule: Q01DX001 (ip), vehicle: acetone) does the source give for `CC(=O)Nn1c(=O)c(=O)oc2ccccc21` here?
The T/C was 94 % of control.

And the T/C (dose: 150.0 mg/kg/injection, schedule: Q01DX001 (ip), vehicle: acetone)?
Its T/C is 93 % of control.

What about the T/C (dose: 300.0 mg/kg/injection, schedule: Q01DX001 (ip), vehicle: acetone) of the same compound?
The T/C was 96 % of control.

For `COC(=O)C(CCCCN=Cc1ccccc1O)N=Cc1ccccc1O.[Ni]` (configuration not stated), which T/C [4] is on record?
The T/C was 87 % of control.

What about the T/C (dose: 200.0 mg/kg/injection, schedule: Q04DX003 (ip), vehicle: saline with Tween-80) of the same compound?
Its T/C is 88 % of control.

For `CCCCCCCCCCCCCCCCCC1=NCCN1CCN`, which T/C (dose: 25.0 mg/kg/injection, schedule: Q01DX009 (ip), vehicle: saline) is on record?
The T/C was 111 % of control.

And the T/C (dose: 25.0 mg/kg/injection, schedule: Q04DX003 (ip), vehicle: saline)?
Its T/C is 97 % of control.

What about the T/C [5] of the same compound?
The T/C was 97 % of control.

What about the T/C (dose: 50.0 mg/kg/injection, schedule: Q04DX003 (ip), vehicle: saline) of the same compound?
The T/C was 92 % of control.

What about the T/C (dose: 100.0 mg/kg/injection, schedule: Q01DX001 (ip), vehicle: acetone) of the same compound?
Its T/C is 100 % of control.

What about the T/C [6] of the same compound?
Its T/C is 101 % of control.

How did the T/C (dose: 100.0 mg/kg/injection, schedule: Q04DX003 (ip), vehicle: other) turn out when `O=C(COc1cccc(Cl)c1)Nc1ccccc1S(=O)(=O)F` was run?
Its T/C is 89 % of control.

And the T/C (dose: 200.0 mg/kg/injection, schedule: Q04DX003 (ip), vehicle: other)?
Its T/C is 87 % of control.

And the T/C (dose: 400.0 mg/kg/injection, schedule: Q04DX003 (ip), vehicle: other)?
Its T/C is 98 % of control.

What does the source list for `CCCCCCCCCCCCCCCCCC(=O)C(C)(C)C`?
T/C (dose: 25.0 mg/kg/injection, schedule: Q01DX001 (ip), vehicle: Klucel (hydroxypropylcellulose) (HPC)): 92 % of control; T/C (dose: 50.0 mg/kg/injection, schedule: Q01DX001 (ip), vehicle: Klucel (hydroxypropylcellulose) (HPC)): 98 % of control; T/C (dose: 100.0 mg/kg/injection, schedule: Q01DX001 (ip), vehicle: Klucel (hydroxypropylcellulose) (HPC)): 98 % of control; T/C (dose: 200.0 mg/kg/injection, schedule: Q01DX001 (ip), vehicle: Klucel (hydroxypropylcellulose) (HPC)): 98 % of control; T/C (dose: 400.0 mg/kg/injection, schedule: Q01DX001 (ip), vehicle: Klucel (hydroxypropylcellulose) (HPC)): 95 % of control

Which T/C (dose: 50.0 mg/kg/injection, schedule: Q04DX002 (ip), vehicle: saline with Tween-80) does the source give for `O=[N+]([O-])c1ccc(N/N=C/C#Cc2ccccc2)c([N+](=O)[O-])c1` here?
The T/C was 88 % of control.

With `CCN(CC)CCCOC(=O)N(Cc1ccc(Cl)cc1)C1CC1` as the compound, how does the T/C (dose: 25.0 mg/kg/injection, schedule: Q01DX009 (ip), vehicle: saline with Tween-80) read?
Its T/C is 100 % of control.

What about the T/C (dose: 50.0 mg/kg/injection, schedule: Q01DX009 (ip), vehicle: saline with Tween-80) of the same compound?
Its T/C is 93 % of control.

What about the T/C [4] of the same compound?
Its T/C is 102 % of control.

With `O=C(N/N=C/c1cccnc1)c1cccc([N+](=O)[O-])c1` as the compound, how does the T/C (dose: 100.0 mg/kg/injection, schedule: Q01DX009 (ip), vehicle: Klucel (hydroxypropylcellulose) (HPC)) read?
Its T/C is 89 % of control.

And the T/C (dose: 200.0 mg/kg/injection, schedule: Q01DX009 (ip), vehicle: Klucel (hydroxypropylcellulose) (HPC))?
Its T/C is 95 % of control.

And the T/C (dose: 400.0 mg/kg/injection, schedule: Q01DX009 (ip), vehicle: Klucel (hydroxypropylcellulose) (HPC))?
The T/C was 101 % of control.

For `CCCNCCCCCCNCCC`, which T/C [6] is on record?
Its T/C is 98 % of control.

With `CCCCN(C(=O)O)P(=O)(OCC)OCC` as the compound, how does the T/C [5] read?
Its T/C is 101 % of control.

What about the T/C (dose: 100.0 mg/kg/injection, schedule: Q01DX009 (ip), vehicle: saline) of the same compound?
The T/C was 103 % of control.

And the T/C (dose: 200.0 mg/kg/injection, schedule: Q01DX009 (ip), vehicle: saline)?
The T/C was 109 % of control.

What about the T/C (dose: 400.0 mg/kg/injection, schedule: Q01DX009 (ip), vehicle: saline) of the same compound?
The T/C was 97 % of control.

Which results are given for `CCCCN(C)/N=N/c1[nH]ncc1C(=O)OCC`?
T/C (dose: 52.0 mg/kg/injection, schedule: Q01DX009 (ip), vehicle: other): 119 % of control; T/C (dose: 78.0 mg/kg/injection, schedule: Q01DX009 (ip), vehicle: other): 119 % of control; T/C (dose: 266.0 mg/kg/injection, schedule: Q01DX007 (ip), vehicle: saline): 154 % of control; T/C (dose: 266.0 mg/kg/injection, schedule: Q01DX009 (ip), vehicle: other): 168 % of control; T/C (dose: 400.0 mg/kg/injection, schedule: Q01DX007 (ip), vehicle: saline): 174 % of control

Which T/C (dose: 50.0 mg/kg/injection, schedule: Q01DX001 (ip), vehicle: carboxymethylcellulose (CMC)) does the source give for `Clc1ccc(/C=N/Nc2nnc(N/N=C/c3ccc(Cl)cc3Cl)c3ccccc23)c(Cl)c1` here?
Its T/C is 88 % of control.

What about the T/C (dose: 100.0 mg/kg/injection, schedule: Q01DX001 (ip), vehicle: carboxymethylcellulose (CMC)) of the same compound?
The T/C was 89 % of control.

What about the T/C (dose: 200.0 mg/kg/injection, schedule: Q01DX001 (ip), vehicle: carboxymethylcellulose (CMC)) of the same compound?
Its T/C is 93 % of control.

What about the T/C (dose: 400.0 mg/kg/injection, schedule: Q01DX001 (ip), vehicle: carboxymethylcellulose (CMC)) of the same compound?
The T/C was 100 % of control.
